Drawing on patent US9187471B2, “Pyrido [4,3-b] indole and pyrido [3,4-b] indole derivatives and methods of use” (Medivation Technologies, Inc., priority 2010, dated 2015), this text covers inhibition for eight molecules.

Assay [1] deals with T1, rat adrenergic α1A receptor (Rattus norvegicus, UniProt P43140).
T1 construct: rat adrenergic α1A receptor obtained from Wistar Rat submaxillary glands; from tissue; host or cells: Wistar rat submaxillary glands
T1 sequence (P43140 1-466): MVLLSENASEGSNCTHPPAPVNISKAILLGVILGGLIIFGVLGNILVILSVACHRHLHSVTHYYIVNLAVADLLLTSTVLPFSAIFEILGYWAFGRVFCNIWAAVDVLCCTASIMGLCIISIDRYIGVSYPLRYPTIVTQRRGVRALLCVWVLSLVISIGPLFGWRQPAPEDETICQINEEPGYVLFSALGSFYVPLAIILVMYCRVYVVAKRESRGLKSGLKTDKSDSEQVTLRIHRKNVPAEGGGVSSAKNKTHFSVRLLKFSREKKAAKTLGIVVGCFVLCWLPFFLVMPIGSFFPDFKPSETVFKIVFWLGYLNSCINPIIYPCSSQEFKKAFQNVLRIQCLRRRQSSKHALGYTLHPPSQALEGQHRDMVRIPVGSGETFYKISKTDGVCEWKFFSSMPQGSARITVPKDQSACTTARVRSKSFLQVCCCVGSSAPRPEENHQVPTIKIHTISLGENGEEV
Kind of assay: Adrenergic α1A radioligand binding ([3H]Prazosin). As to conditions: read-out: Adrenergic (0.1 μM) a1A, percent inhibition of specific binding; compound at 0.1 μM; 0.25 nM [3H]Prazosin. Put shortly: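 Wistar rat submaxillary gland receptor in 50 mM Tris-HCl pH 7.4 with 0.5 mM EDTA, incubated with compound and 0.25 nM [3H]Prazosin for 60 min at 25 °C.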

Assay [2] has as its target T2, human recombinant adrenergic α2C receptor (Homo sapiens, UniProt P18825).
T2 construct: expressed in transfected cells; host or cells: insect Sf9 cells
T2 sequence (P18825 1-462): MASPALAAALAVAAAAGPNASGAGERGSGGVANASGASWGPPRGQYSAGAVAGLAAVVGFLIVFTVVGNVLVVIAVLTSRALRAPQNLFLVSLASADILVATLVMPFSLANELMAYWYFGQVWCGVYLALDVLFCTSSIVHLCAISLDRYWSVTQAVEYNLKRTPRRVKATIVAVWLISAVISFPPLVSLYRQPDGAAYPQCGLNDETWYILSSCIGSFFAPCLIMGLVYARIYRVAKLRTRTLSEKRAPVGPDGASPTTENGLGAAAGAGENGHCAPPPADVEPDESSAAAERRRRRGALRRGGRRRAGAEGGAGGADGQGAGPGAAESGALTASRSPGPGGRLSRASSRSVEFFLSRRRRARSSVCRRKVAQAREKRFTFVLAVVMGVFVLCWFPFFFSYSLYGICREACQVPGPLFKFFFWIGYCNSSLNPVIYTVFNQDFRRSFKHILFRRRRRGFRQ
Briefly: Adrenergic α2C radioligand binding ([3H]MK-912). As to conditions: read-out: Adrenergic (0.1 μM) a2C, percent inhibition of specific binding; compound at 0.1 μM; 1 nM [3H]MK-912. Put shortly: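 Membranes from Sf9 cells expressing the human receptor, in 50 mM Tris-HCl pH 7.4 with 12.5 mM MgCl2 and 2 mM EDTA, incubated with compound and 1 nM [3H]MK-912 for 60 min at 25 °C. Non-specific binding defined with 10 μM WB-4101. Filter-bound radioactivity counted; percent inhibition of specific binding reported.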

Assay [3] concerns the target T3, human recombinant dopamine D2L receptor (Homo sapiens, UniProt P14416).
T3 construct: expressed in transfected cells; host or cells: CHO
Briefly: Dopamine D2L radioligand binding ([3H]Spiperone). As to conditions: read-out: Dopamine D2L (1 μM), percent inhibition of specific binding; compound at 1 μM; 0.16 nM [3H]Spiperone. The method, then: Non-specific binding was estimated in the presence of 10 μM Haloperidol. Receptor proteins were filtered and washed, the filters were then counted to determine [^3H]Spiperone specifically bound.

Assay [4] addresses T4, human recombinant serotonin (5-Hydroxytryptamine) 5-HT2A receptor (Homo sapiens, UniProt P28223).
T4 construct: expressed in transfected cells; host or cells: CHO-K1
Briefly: Serotonin 5-HT2A radioligand binding ([3H]Ketanserin). As to conditions: compound at 0.1 μM; read-out: Inhibition of ligand binding, Serotonin 5-HT2A (percent inhibition of specific binding). The method, then: Compounds of the invention were incubated with 0.5 nM [^3H]Ketanserin for 60 min at 25° C. Non-specific binding was estimated in the presence of 1 μM Mianserin. Receptor proteins were filtered and washed, the filters were then counted to determine [^3H]Ketanserin specifically bound.

For assay [5], the target named is T5, human recombinant serotonin (5-Hydroxytryptamine) 5-HT6 receptor (Homo sapiens, UniProt P50406).
T5 construct: expressed in transfected cells; host or cells: HeLa
Briefly: Serotonin 5-HT6 radioligand binding ([3H]LSD). Conditions: compound at 0.1 μM; read-out: Inhibition of ligand binding, Serotonin 5-HT6 (percent inhibition of specific binding). From the text: Receptor proteins were filtered and washed, the filters were then counted to determine [3H]LSD specifically bound.

In assay [6] the target is T6, human recombinant serotonin (5-Hydroxytryptamine) 5-HT7 receptor (Homo sapiens, UniProt P34969).
T6 construct: expressed in transfected cells; host or cells: CHO
Briefly: Serotonin 5-HT7 radioligand binding ([3H]LSD). As to conditions: compound at 0.1 μM; read-out: Inhibition of ligand binding, Serotonin 5-HT7 (percent inhibition of specific binding). The method, then: Lysergic acid diethylamide (LSD) for 120 min. at 25° C. […] Receptor proteins were filtered and washed, the filters were then counted to determine [^3H]LSD specifically bound.

T6 sequence (P34969 whole entry): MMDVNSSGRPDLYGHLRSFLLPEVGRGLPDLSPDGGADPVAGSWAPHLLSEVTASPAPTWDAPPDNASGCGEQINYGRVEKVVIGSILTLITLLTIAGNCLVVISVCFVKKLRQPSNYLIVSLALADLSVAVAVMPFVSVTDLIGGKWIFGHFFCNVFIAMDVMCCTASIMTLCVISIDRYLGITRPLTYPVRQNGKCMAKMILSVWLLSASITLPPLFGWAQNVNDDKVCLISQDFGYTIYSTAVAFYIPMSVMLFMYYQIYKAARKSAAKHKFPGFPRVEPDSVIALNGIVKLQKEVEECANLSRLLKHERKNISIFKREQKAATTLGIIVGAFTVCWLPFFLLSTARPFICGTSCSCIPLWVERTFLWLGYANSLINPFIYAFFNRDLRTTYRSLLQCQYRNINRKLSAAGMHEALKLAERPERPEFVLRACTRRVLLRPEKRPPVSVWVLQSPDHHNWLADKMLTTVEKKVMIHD
T5 sequence (P50406 whole entry): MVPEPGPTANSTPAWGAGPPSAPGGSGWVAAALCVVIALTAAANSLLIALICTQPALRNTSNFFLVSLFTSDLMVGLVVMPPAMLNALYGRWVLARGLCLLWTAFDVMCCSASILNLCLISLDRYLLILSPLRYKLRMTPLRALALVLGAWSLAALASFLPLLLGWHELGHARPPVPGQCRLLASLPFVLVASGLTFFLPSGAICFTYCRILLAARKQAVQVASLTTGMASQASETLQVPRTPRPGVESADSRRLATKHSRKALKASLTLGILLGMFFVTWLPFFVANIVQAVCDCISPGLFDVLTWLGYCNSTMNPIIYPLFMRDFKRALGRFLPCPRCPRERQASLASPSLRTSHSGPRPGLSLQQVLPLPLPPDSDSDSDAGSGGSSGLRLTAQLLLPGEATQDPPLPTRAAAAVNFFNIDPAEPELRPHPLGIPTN
T4 sequence (P28223 whole entry): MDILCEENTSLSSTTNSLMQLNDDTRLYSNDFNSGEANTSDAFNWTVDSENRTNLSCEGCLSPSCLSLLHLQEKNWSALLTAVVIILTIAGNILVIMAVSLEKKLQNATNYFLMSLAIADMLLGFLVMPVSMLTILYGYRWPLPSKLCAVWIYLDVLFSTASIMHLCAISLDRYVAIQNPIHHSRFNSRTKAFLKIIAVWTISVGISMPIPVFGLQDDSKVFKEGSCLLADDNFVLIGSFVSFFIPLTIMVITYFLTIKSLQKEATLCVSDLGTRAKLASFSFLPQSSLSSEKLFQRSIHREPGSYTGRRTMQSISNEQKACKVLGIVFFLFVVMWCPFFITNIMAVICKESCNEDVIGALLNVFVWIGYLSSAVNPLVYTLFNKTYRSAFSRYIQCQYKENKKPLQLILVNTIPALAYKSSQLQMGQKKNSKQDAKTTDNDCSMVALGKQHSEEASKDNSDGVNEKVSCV
T3 sequence (P14416 whole entry): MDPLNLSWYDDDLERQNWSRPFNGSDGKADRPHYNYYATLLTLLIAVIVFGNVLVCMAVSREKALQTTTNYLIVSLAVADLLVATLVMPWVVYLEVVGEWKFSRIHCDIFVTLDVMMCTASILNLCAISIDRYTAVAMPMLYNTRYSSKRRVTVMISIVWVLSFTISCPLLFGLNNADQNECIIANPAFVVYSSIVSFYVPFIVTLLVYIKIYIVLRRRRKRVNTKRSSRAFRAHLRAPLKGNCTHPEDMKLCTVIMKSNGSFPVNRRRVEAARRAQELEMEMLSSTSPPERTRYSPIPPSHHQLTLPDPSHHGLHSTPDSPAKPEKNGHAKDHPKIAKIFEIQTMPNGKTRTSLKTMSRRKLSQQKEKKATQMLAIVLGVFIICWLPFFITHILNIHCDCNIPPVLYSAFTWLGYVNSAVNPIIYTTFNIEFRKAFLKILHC

The term inhibition denotes the change of the read-out against control, counted positive when it falls. Consider `Cc1ccc2c(c1)c1c(n2-c2ccccc2-c2cnn(C)c2)CCN(C)C1` [Compound No. 86, 2,8-dimethyl-5-(2-(1-methyl-1H-pyrazol-4-yl)phenyl)-2,3,4,5-tetrahydro-1H-pyrido[4,3-b]indole], for which the inhibition at 0.1 µM in assay [1] was 17%; in assay [2], 0%; in assay [4], 94%; in assay [5], 11%; in assay [6], 53%. In assay [3], the inhibition at 1 µM was determined as 6%.
`Cc1ccc2c(c1)c1c(n2-c2ccccc2-c2cncc3ccccc23)CCN(C)C1` [Compound No. 87, 5-(2-(isoquinolin-4-yl)phenyl)-2,8-dimethyl-2,3,4,5-tetrahydro-1H-pyrido[4,3-b]indole]: the inhibition at 0.1 µM in assay [1] is 8%; in assay [2] it was -6%; in assay [4], 70%; in assay [5], 13%; in assay [6], 14%. For the same molecule, in assay [3], the inhibition at 1 µM was determined as 10%.
Consider `Cc1ccc2c(c1)c1c(n2-c2cnc3ccccc3c2)CCN(C)C1` [Compound No. 88, 2,8-dimethyl-5-quinolin-3-yl-2,3,4,5-tetrahydro-1H-pyrido[4,3-b]indole], for which the inhibition at 0.1 µM in assay [1] came to 20%; in assay [2], 4%; in assay [4], 93%; in assay [5], 4%; in assay [6], 13%. Moreover, the inhibition at 1 µM in assay [3] stood at 7%.
Take `Cc1ccc2c(c1)c1c(n2-c2ccccc2-c2cccn2C)CCN(C)C1` [Compound No. 100, 2,8-dimethyl-5-(2-(1-methyl-1H-pyrrol-2-yl)phenyl)-2,3,4,5-tetrahydro-1H-pyrido[4,3-b]indole]: the inhibition at 0.1 µM in assay [1] is 46%; in assay [2], 66%; in assay [4], 74%; in assay [5], 26%; in assay [6], 48%. Besides, in assay [3], the inhibition at 1 µM came to 11%.
Regarding `Cc1ccc2c(c1)c1c(n2-c2ccccc2-c2sccc2C)CCN(C)C1` [Compound No. 102, 2,8-dimethyl-5-(2-(3-methylthiophen-2-yl)phenyl)-2,3,4,5-tetrahydro-1H-pyrido[4,3-b]indole], the inhibition at 0.1 µM in assay [1] was 28%; in assay [2] it was 43%; in assay [4] it was 92%; in assay [5], 42%; in assay [6], 34%. Further, in assay [3], the inhibition at 1 µM was 48%.
`Cc1ccc2c(c1)c1c(n2-c2ccccc2-c2cc3ccccc3s2)CCN(C)C1` [Compound No. 103, 5-(2-(benzo[b]thiophen-2-yl)phenyl)-2,8-dimethyl-2,3,4,5-tetrahydro-1H-pyrido[4,3-b]indole]: the inhibition at 0.1 µM stood at 44% in assay [1]; 69% in assay [2]; 24% in assay [4]; 20% in assay [5]; 39% in assay [6]. Further, the inhibition at 1 µM in assay [3] was 10%.
Turning to `Cc1ccc2c(c1)c1c(n2-c2ccccc2-c2cn[nH]c2)CCN(C)C1` [Compound No. 104, 5-(2-(1H-pyrazol-4-yl)phenyl)-2,8-dimethyl-2,3,4,5-tetrahydro-1H-pyrido[4,3-b]indole], the inhibition at 0.1 µM was 4% in assay [1]; 1% in assay [2]; 57% in assay [4]; 10% in assay [5]; 27% in assay [6]. Besides, the inhibition at 1 µM in assay [3] is -1%.
As for `Cc1ccc2c(c1)c1c(n2-c2ccccc2-c2cccc3[nH]ncc23)CCN(C)C1` [Compound No. 105, 5-(2-(1H-indazol-4-yl)phenyl)-2,8-dimethyl-2,3,4,5-tetrahydro-1H-pyrido[4,3-b]indole], the inhibition at 0.1 µM in assay [1] amounted to 55%; in assay [2], 45%; in assay [4], 94%; in assay [5] it was 40%; in assay [6] it was 54%. Besides, in assay [3], the inhibition at 1 µM came out at 3%.
